Values of other authors as cited in US20170223976A1, “MODIFIED MILK POWDER CONTAINING 1,5-ANHYDRO-D-GLUCITOL” (NIHON STARCH CO., LTD., priority 2015, published 2017).

Conditions: cited from earlier work
[1] = excessive amount of 1,5-AG taken as food

OC[C@H]1OC[C@H](O)[C@@H](O)[C@@H]1O [1,5-AG, 1,5-anhydro-D-glucitol]
temporary rise of the concentration of 1,5-AG in the blood [1]: about 100 times | time for the 1,5-AG level in the blood to return to the original level [1]: about 24 hours | time for the 1,5-AG level in the blood to return to the original value (ingested temporarily, for example 20 g, eliminated through urine): about 24 hours
